From US20240059671A1, “TYROSINE KINASE 2 (TYK2) DEGRADATION COMPOUNDS AND METHODS OF USE” (CULLGEN (SHANGHAI), INC., priority 2020, published 2024)

Target: TYK2 (Homo sapiens, UniProt P29597)
Assay: TYK2 protein degradation in MOLT-4 cells by immunoblotting
Assay type: cell-based
Design: endogenous in cells; host or cells: MOLT-4
Details: MOLT-4 cells, 24 hours
How it was run: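 MOLT-4 cells were exposed to compounds at 0.5 and 5 μM for 24 h, then lysed in RIPA buffer with protease and phosphatase inhibitors. TYK2 was detected by SDS-PAGE immunoblot with chemiluminescence, and band densitometry gave percent degradation.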

Chain of TYK2 (P29597 whole entry): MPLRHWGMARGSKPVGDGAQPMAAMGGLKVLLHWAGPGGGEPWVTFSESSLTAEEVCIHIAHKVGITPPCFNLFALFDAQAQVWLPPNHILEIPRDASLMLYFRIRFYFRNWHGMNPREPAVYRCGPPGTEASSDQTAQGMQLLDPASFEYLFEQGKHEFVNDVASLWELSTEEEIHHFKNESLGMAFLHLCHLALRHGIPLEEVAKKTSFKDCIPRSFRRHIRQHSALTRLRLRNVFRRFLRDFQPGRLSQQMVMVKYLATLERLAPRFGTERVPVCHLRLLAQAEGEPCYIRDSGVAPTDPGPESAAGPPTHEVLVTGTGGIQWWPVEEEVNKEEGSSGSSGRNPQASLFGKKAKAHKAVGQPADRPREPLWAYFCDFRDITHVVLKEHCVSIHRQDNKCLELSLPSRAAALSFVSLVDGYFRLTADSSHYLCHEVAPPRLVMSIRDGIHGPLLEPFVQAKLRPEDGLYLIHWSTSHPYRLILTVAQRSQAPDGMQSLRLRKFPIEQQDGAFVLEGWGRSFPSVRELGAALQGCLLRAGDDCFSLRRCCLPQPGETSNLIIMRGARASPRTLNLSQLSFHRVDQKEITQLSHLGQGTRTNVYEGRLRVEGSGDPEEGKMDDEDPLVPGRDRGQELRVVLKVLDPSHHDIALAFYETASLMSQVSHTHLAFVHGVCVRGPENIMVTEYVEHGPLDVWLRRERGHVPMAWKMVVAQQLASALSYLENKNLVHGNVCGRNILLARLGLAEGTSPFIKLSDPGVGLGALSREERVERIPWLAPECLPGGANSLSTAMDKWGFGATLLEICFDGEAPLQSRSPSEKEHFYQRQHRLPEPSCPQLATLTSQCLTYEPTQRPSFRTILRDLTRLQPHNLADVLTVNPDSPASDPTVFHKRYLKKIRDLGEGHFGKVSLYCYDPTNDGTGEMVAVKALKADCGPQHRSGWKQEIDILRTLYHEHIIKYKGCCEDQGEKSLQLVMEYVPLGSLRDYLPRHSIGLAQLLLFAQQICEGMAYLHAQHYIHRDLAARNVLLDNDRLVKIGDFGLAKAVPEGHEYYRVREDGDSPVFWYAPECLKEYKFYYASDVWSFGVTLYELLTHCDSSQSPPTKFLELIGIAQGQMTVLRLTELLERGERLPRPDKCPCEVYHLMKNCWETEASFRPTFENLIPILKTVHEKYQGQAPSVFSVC

TYK2 Degradation (0.5 μM)	TYK2 Degradation (5 μM)	TYK2 Degradation (MOLT-4, 5 μM)	SMILES	TYK2 Degradation (MOLT-4, 0.5 μM)
≤20%	≤20%	–	CNC(=O)c1nnc(NC(=O)C2CC2)cc1Nc1cccc(-c2ncn(CCNC(=O)COCCOCCOCCOCCOCC(=O)N[C@H](C(=O)N3C[C@H](O)C[C@H]3C(=O)NCc3ccc(-c4scnc4C)cc3)C(C)(C)C)n2)c1OC [CPD-073, N^1-(2-(3-(3-((6-(Cyclopropanecarboxamido)-3-(methylcarbamoyl)pyridazin-4-yl)amino)-2-methoxyphenyl)-1H-1,2,4-triazol-1-yl)ethyl)-N^17-((S)-1-((2S,4R)-4-hydroxy-2-((4-(4-methylthiazol-5-yl)benzyl)carbamoyl)pyrrolidin-1-yl)-3,3-dimethyl-1-oxobutan-2-yl)-3,6,9,12,15-pentaoxaheptadecanediamide]	–
≤20%	≤20%	–	CNC(=O)c1nnc(NC(=O)CNC(=O)CCOCCOCCOCCOCCNc2cccc3c2C(=O)N(C2CCC(=O)NC2=O)C3=O)cc1Nc1cccc(-c2ncn(C)n2)c1OC (stereo not drawn) [CPD-052, 6-(1-((2-(2,6-Dioxopiperidin-3-yl)-1,3-dioxoisoindolin-4-yl)amino)-15-oxo-3,6,9,12-tetraoxa-16-azaoctadecan-18-amido)-4-((2-methoxy-3-(1-methyl-1H-1,2,4-triazol-3-yl)phenyl)amino)-N-methylpyridazine-3-carboxamide]	–
50%	≤20%	–	CNC(=O)c1nnc(NC(=O)CNC(=O)CCCCCCCNc2cccc3c2C(=O)N(C2CCC(=O)NC2=O)C3=O)cc1Nc1cccc(-c2ncn(C)n2)c1OC (stereo not drawn) [CPD-048, 6-(2-(8-((2-(2,6-Dioxopiperidin-3-yl)-1,3-dioxoisoindolin-4-yl)amino)octanamido)acetamido)-4-((2-methoxy-3-(1-methyl-1H-1,2,4-triazol-3-yl)phenyl)amino)-N-methylpyridazine-3-carboxamide]	–
≤20%	≤20%	–	CNC(=O)c1nnc(NC(=O)CNC(=O)CNc2cccc3c2C(=O)N(C2CCC(=O)NC2=O)C3=O)cc1Nc1cccc(-c2ncn(C)n2)c1OC (stereo not drawn) [CPD-042, 6-(2-(2-((2-(2,6-Dioxopiperidin-3-yl)-1,3-dioxoisoindolin-4-yl)amino)acetamido)acetamido)-4-((2-methoxy-3-(1-methyl-1H-1,2,4-triazol-3-yl)phenyl)amino)-N-methylpyridazine-3-carboxamide]	–
≤20%	–	–	CNC(=O)c1nnc(NC(=O)C2CC2)cc1Nc1cccc(-c2ncn(CCNC(=O)CCCCCCNc3cccc4c3C(=O)N(C3CCC(=O)NC3=O)C4=O)n2)c1OC (stereo not drawn) [CPD-006, 6-(Cyclopropanecarboxamido)-4-((3-(1-(2-(7-((2-(2,6-dioxopiperidin-3-yl)-1,3-dioxoisoindolin-4-yl)amino)heptanamido)ethyl)-1H-1,2,4-triazol-3-yl)-2-methoxyphenyl)amino)-N-methylpyridazine-3-carboxamide]	–
–	–	C (C: ≤20% TYK2 degradation)	CNC(=O)c1nnc(Nc2ccc(N3CCN(C(=O)CCC(=O)N[C@H](C(=O)N4C[C@H](O)C[C@H]4C(=O)NCc4ccc(-c5scnc5C)cc4)C(C)(C)C)CC3)cn2)cc1Nc1cccc(-c2ncn(C)n2)c1OC [CPD-096, 6-((5-(4-(4-(((S)-1-((2S,4R)-4-Hydroxy-2-((4-(4-methylthiazol-5-yl)benzyl)carbamoyl)pyrrolidin-1-yl)-3,3-dimethyl-1-oxobutan-2-yl)amino)-4-oxobutanoyl)piperazin-1-yl)pyridin-2-yl)amino)-4-((2-methoxy-3-(1-methyl-1H-1,2,4-triazol-3-yl)phenyl)amino)-N-methylpyridazine-3-carboxamide]	B (B: <60% TYK2 degradation, and >20% TYK2 degradation)

The remaining lines, values behind:

SMILES	TYK2 Degradation (0.5 μM)	TYK2 Degradation (5 μM)	TYK2 Degradation (MOLT-4, 5 μM)	TYK2 Degradation (MOLT-4, 0.5 μM)
CNC(=O)c1nnc(NC(=O)CNC(=O)CCCCCCCCOc2cc(-c3scnc3C)ccc2CNC(=O)[C@@H]2C[C@@H](O)CN2C(=O)[C@@H](NC(=O)C2(F)CC2)C(C)(C)C)cc1Nc1cccc(-c2ncn(C)n2)c1OC [CPD-108, 6-(2-(9-(2-(((2S,4R)-1-((S)-2-(1-Fluorocyclopropane-1-carboxamido)-3,3-dimethylbutanoyl)-4-hydroxypyrrolidine-2-carboxamido)methyl)-5-(4-methylthiazol-5-yl)phenoxy)nonanamido)acetamido)-4-((2-methoxy-3-(1-methyl-1H-1,2,4-triazol-3-yl)phenyl)amino)-N-methylpyridazine-3-carboxamide]	–	–	C (C: ≤20% TYK2 degradation)	C (C: ≤20% TYK2 degradation)
CNC(=O)c1nnc(NC(=O)C2CC2)cc1Nc1cccc(-c2ncn(CCNC(=O)CCCC(=O)N[C@H](C(=O)N3C[C@H](O)C[C@H]3C(=O)NCc3ccc(-c4scnc4C)cc3)C(C)(C)C)n2)c1OC [CPD-076, N^1-(2-(3-(3-((6-(Cyclopropanecarboxamido)-3-(methylcarbamoyl)pyridazin-4-yl)amino)-2-methoxyphenyl)-1H-1,2,4-triazol-1-yl)ethyl)-N^5-((S)-1-((2S,4R)-4-hydroxy-2-((4-(4-methylthiazol-5-yl)benzyl)carbamoyl)pyrrolidin-1-yl)-3,3-dimethyl-1-oxobutan-2-yl)glutaramide]	≤20%	≤20%	–	–
CNC(=O)c1nnc(NC(=O)C2CC2)cc1Nc1cccc(-c2ncn(CCNC(=O)CCOCCOCCOCCNc3ccc4c(c3)C(=O)N(C3CCC(=O)NC3=O)C4=O)n2)c1OC (stereo not drawn) [CPD-020, 6-(Cyclopropanecarboxamido)-4-((3-(1-(1-((2-(2,6-dioxopiperidin-3-yl)-1,3-dioxoisoindolin-5-yl)amino)-12-oxo-3,6,9-trioxa-13-azapentadecan-15-yl)-1H-1,2,4-triazol-3-yl)-2-methoxyphenyl)amino)-N-methylpyridazine-3-carboxamide]	≤20%	–	–	–
CNC(=O)c1nnc(NC(=O)CNC(=O)CCOCCNc2cccc3c2C(=O)N(C2CCC(=O)NC2=O)C3=O)cc1Nc1cccc(-c2ncn(C)n2)c1OC (stereo not drawn) [CPD-049, 6-(2-(3-(2-((2-(2,6-Dioxopiperidin-3-yl)-1,3-dioxoisoindolin-4-yl)amino)ethoxy)propanamido)acetamido)-4-((2-methoxy-3-(1-methyl-1H-1,2,4-triazol-3-yl)phenyl)amino)-N-methylpyridazine-3-carboxamide]	≤20%	≤20%	–	–
CNC(=O)c1nnc(Nc2ccc(N3CCN(C(=O)CC(=O)N[C@H](C(=O)N4C[C@H](O)C[C@H]4C(=O)NCc4ccc(-c5scnc5C)cc4)C(C)(C)C)CC3)cn2)cc1Nc1cccc(-c2ncn(C)n2)c1OC [CPD-111, 6-((5-(4-(3-(((S)-1-((2S,4R)-4-Hydroxy-2-((4-(4-methylthiazol-5-yl)benzyl)carbamoyl)pyrrolidin-1-yl)-3,3-dimethyl-1-oxobutan-2-yl)amino)-3-oxopropanoyl)piperazin-1-yl)pyridin-2-yl)amino)-4-((2-methoxy-3-(1-methyl-1H-1,2,4-triazol-3-yl)phenyl)amino)-N-methylpyridazine-3-carboxamide]	–	–	B (B: <60% TYK2 degradation, and >20% TYK2 degradation)	B (B: <60% TYK2 degradation, and >20% TYK2 degradation)
CNC(=O)c1nnc(NC(=O)CNC(=O)CNc2ccc3c(c2)C(=O)N(C2CCC(=O)NC2=O)C3=O)cc1Nc1cccc(-c2ncn(C)n2)c1OC (stereo not drawn) [CPD-054, 6-(2-(2-((2-(2,6-Dioxopiperidin-3-yl)-1,3-dioxoisoindolin-5-yl)amino)acetamido)acetamido)-4-((2-methoxy-3-(1-methyl-1H-1,2,4-triazol-3-yl)phenyl)amino)-N-methylpyridazine-3-carboxamide]	≤20%	≤20%	–	–
CNC(=O)c1nnc(NC(=O)C2CC2)cc1Nc1cccc(-c2ncn(CCNC(=O)CCCCCCCCCC(=O)N[C@H](C(=O)N3C[C@H](O)C[C@H]3C(=O)NCc3ccc(-c4scnc4C)cc3)C(C)(C)C)n2)c1OC [CPD-082, N^1-(2-(3-(3-((6-(Cyclopropanecarboxamido)-3-(methylcarbamoyl)pyridazin-4-yl)amino)-2-methoxyphenyl)-1H-1,2,4-triazol-1-yl)ethyl)-N^11-((S)-1-((2S,4R)-4-hydroxy-2-((4-(4-methylthiazol-5-yl)benzyl)carbamoyl)pyrrolidin-1-yl)-3,3-dimethyl-1-oxobutan-2-yl)undecanediamide]	–	–	C (C: ≤20% TYK2 degradation)	C (C: ≤20% TYK2 degradation)
CNC(=O)c1nnc(NC(=O)C2CC2)cc1Nc1cccc(-c2ncn(CCNC(=O)CNc3ccc4c(c3)C(=O)N(C3CCC(=O)NC3=O)C4=O)n2)c1OC (stereo not drawn) [CPD-013, 6-(Cyclopropanecarboxamido)-4-((3-(1-(2-(2-((2-(2,6-dioxopiperidin-3-yl)-1,3-dioxoisoindolin-5-yl)amino)acetamido)ethyl)-1H-1,2,4-triazol-3-yl)-2-methoxyphenyl)amino)-N-methylpyridazine-3-carboxamide]	≤20%	–	–	–
CNC(=O)c1nnc(Nc2ccc(N3CCN(C(=O)CCCC(=O)N[C@H](C(=O)N4C[C@H](O)C[C@H]4C(=O)NCc4ccc(-c5scnc5C)cc4)C(C)(C)C)CC3)cn2)cc1Nc1cccc(-c2ncn(C)n2)c1OC [CPD-097, 6-((5-(4-(5-(((S)-1-((2S,4R)-4-Hydroxy-2-((4-(4-methylthiazol-5-yl)benzyl)carbamoyl)pyrrolidin-1-yl)-3,3-dimethyl-1-oxobutan-2-yl)amino)-5-oxopentanoyl)piperazin-1-yl)pyridin-2-yl)amino)-4-((2-methoxy-3-(1-methyl-1H-1,2,4-triazol-3-yl)phenyl)amino)-N-methylpyridazine-3-carboxamide]	–	–	C (C: ≤20% TYK2 degradation)	B (B: <60% TYK2 degradation, and >20% TYK2 degradation)
